Test results reported in US20090163521A1, “Novel Pyrazolopyrimidinone Derivatives” (ORCHID RESEARCH LABORATORIES LIMITED, priority 2005, published 2009).

What was measured:
TNF-α = assay: In vitro measurement of TNF-α in LPS-stimulated human PBMC; assay type: cell-based; conditions: LPS 1 μg/ml, 18 h
COX-2 = target: T1, COX-2 (Homo sapiens, UniProt P35354); assay: Human whole blood assay (LPS-induced PGE2, COX-2 inhibition); assay type: cell-based; conditions: LPS stimulated
T1 construct: Fresh blood was collected in tubes containing sodium heparin by vein puncture from healthy male volunteers; endogenous in cells; host or cells: human whole blood from healthy male volunteers, aspirin-pretreated and LPS-stimulated
T1 sequence (P35354 18-604): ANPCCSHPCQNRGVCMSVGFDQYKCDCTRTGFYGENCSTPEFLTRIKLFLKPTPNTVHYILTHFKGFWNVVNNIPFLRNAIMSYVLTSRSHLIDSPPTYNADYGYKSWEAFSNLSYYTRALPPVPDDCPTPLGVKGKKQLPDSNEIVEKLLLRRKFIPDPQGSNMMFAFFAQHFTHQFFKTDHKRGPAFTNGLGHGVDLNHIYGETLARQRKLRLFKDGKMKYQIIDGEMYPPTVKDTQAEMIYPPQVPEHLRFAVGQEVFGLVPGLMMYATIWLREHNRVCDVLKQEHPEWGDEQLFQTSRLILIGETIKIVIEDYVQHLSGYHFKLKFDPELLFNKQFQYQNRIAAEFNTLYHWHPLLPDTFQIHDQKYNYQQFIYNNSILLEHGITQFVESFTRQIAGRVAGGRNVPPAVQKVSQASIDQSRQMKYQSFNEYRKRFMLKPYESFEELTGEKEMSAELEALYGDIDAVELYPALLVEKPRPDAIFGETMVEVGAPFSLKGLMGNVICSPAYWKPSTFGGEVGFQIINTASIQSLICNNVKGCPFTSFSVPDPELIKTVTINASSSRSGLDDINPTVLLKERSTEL
Protocol: Human whole blood provides a protein and cell rich milieu appropriate for the study of biochemical efficacy of anti-inflammatory compounds such as selective COX-2 inhibitors. […] This is correlating with the observation that COX-2 inhibitors have no effect on prostaglandin E2 (PGE2) production in normal blood. These inhibitors were active only after incubation of human blood with lipopolysaccharide (LPS), which induces COX-2 production in the blood.
Fresh blood was collected in tubes containing sodium heparin by vein puncture from healthy male volunteers. The subjects should have no apparent inflammatory conditions and not taken NSAIDs for at least 7 days prior to blood collection. Blood was preincubated with aspirin in vitro (12 μg/ml, at time zero) to inactivate COX-1 for 6 hours. Then test compounds (at various concentrations) or vehicle were added to blood. After that blood was stimulated with LPS B:4 (10 μg/ml) and incubated for another 18 h at 37° C. water bath. After which the blood was centrifuged, plasma was separated and stored at −80° C. (J. Pharmacol. Exp. Ther, 271, 1705, 1994; Proc. Natl. Acad. Sci. USA, 96, 7563, 1999). The plasma was assayed for PGE2 using Cayman ELISA kit as per the procedure outlined by the manufacturer (Cayman Chemicals, Ann Arbor, USA).

inhibition at 0.25 µM (COX-2; 0.25 μM): 21.9% | inhibition at 10 µM (COX-2; 10 μM): 16.8%
Compound: CSc1ccc(-c2nc3[nH]nc(N)c3c(=O)n2-c2ccc(C)c(C)c2)cc1 [Example 2, 3-amino-5-(3,4-dimethylphenyl)-6-[4-(methylthio)phenyl]-1,5-dihydro-4H-pyrazolo[3,4-d]pyrimidin-4-one]
inhibition at 10 µM (TNF-α): 53.4%
